Test system: T1, FNR^PBS (ferredoxin NADP(H) oxidoreductase)
T1 construct: gene petH; native enzyme in phycobilisome-enriched fraction; N-terminal peptides MAAVDKKK (1-8), VPINIFRPK (9-17); not recombinant
Assay: diaphorase assay, NADPH oxidation at […] nm, Michaelis-Menten fit
Assay type: biochemical, Gracilaria chilensis
Conditions: 0.15 mM DCPIP as acceptor, 50 mM Tris-HCl pH 8, 1 mM Na2EDTA; phycobilisome-enriched fraction, high salt

SMILES: NC(=O)C1=CN([C@@H]2O[C@H](COP(=O)(O)OP(=O)(O)OC[C@H]3O[C@@H](n4cnc5c(N)ncnc54)[C@H](OP(=O)(O)O)[C@@H]3O)[C@@H](O)[C@H]2O)C=CC1 [NADPH]
- Km: 12.5 ± 1.8 µM

From publication PMC5723097, “Molecular and functional characterization of ferredoxin NADP(H) oxidoreductase from Gracilaria chilensis and its complex with ferredoxin” (Biological Research, 2017)
